Read-outs that look alike come from different tables or passages of the source.
Assays:
[1] = tested on: HT-1080/DR4 doxorubicin selected MDR (MRP/LRP phenotype) fibrosarcoma cell line; assay: Cell growth inhibition, SRB assay, HT-1080-DR4; format: cell-based, human; settings: for IC50: 72-96 h, read-out: IC50 nM (±S.E.) HT-1080-DR4; for Resistance ratio (IC50 resistant cell line/IC50 parental line): MRP/LRP expressing HT1080/DR4 vs HT-1080
Description: (§1) Cell lines were propagated as monolayers in RPMI-1640 containing 5% FCS, 5% NuSerum IV, 20 mM HEPES, 2 mM L-glutamine at 37° C. in a 5% CO2 humidified atmosphere.
(§2) Paclitaxel was solubilized in 100% DMSO. TX-001 and 002 were solubilized in sterile H2O acidified with 10% 1 N HCl. For the first experiment, 4.0 mM stocks of TX-001 and 002 were prepared. Solutions of TX-001 and TX-002 contained clear needle-like and cast-like precipitates and were fairly viscous (Experiment 1). For the second experiment (Experiment 2), less concentrated stock solutions (0.4 mM) of each compound were prepared in sterile H2O acidified with 10% 1 N HCl. The same type of precipitates were noted, however neither solution was viscous. All compounds were further diluted in RPMI-1640 containing 10 mM HEPES.
Assessment of cell growth inhibition was determined in 96 well microtiter plates according to the method of Skehan et al., “New Colorimetric Cytotoxicity Assay for Anticancer-Drug Screening, Articles 82(13):1107-1112 (1990). Briefly, cells were plated with 400-1800 cells/well in 96 well plates and incubated at 37° C. 15-18 hr prior to drug addition to allow for cell attachment. Each cell line was exposed to 12 concentrations of compound (a 6 log range), 5 replicate data points per compound concentration. […] Assays were terminated with 100 μl of ice-cold 50% TCA. After 1 hr at 4° C., plates were washed 5 times with tap water to remove TCA, low-molecular-weight metabolites and serum proteins. 50 μl of 0.4% sulforhodamine B (SRB) was added to each well. Following a five minute incubation at room temperature, plates were rinsed 5 times with 0.1% acetic acid and air dried. Bound dye was solubilized with 10 mM Tris Base (pH 10.5) for 5 min on a gyratory shaker. Optical density was measured at 570 nm.
Data were fit with the Sigmoid-Emax concentration-effect model (N. H. G. Holford and L. B. Scheiner, “Understanding the dose-effect relationship: Clinical applications of pharmacokinetic-pharmacodynamic models,” Clin. Pharmacokin. 6:429-453 (1981)) with nonlinear regression, weighted by the reciprocal of the square of the predicted response.

[2] = tested on: MDA435/LCC6-WT breast carcinoma cell line; assay: Cell growth inhibition, SRB assay, LCC6-WT; format: cell-based, human; settings: read-out: IC50 nM (±S.E.) LCC6-WT
Description: as §1, §2
Assessment of cell growth inhibition was determined in 96 well microtiter plates according to the method of Skehan et al., “New Colorimetric Cytotoxicity Assay for Anticancer-Drug Screening, Articles 82(13):1107-1112 (1990). Briefly, cells were plated with 400-1800 cells/well in 96 well plates and incubated at 37° C. 15-18 hr prior to drug addition to allow for cell attachment. Each cell line was exposed to 12 concentrations of compound (a 6 log range), 5 replicate data points per compound concentration. […] Assays were terminated with 100 μl of ice-cold 50% TCA. After 1 hr at 4° C., plates were washed 5 times with tap water to remove TCA, low-molecular-weight metabolites and serum proteins. 50 μl of 0.4% sulforhodamine B (SRB) was added to each well. Following a five minute incubation at room temperature, plates were rinsed 5 times with 0.1% acetic acid and air dried. Bound dye was solubilized with 10 mM Tris Base (pH 10.5) for 5 min on a gyratory shaker. Optical density was measured at 570 nm. […]

[3] = tested on: HT-1080 fibrosarcoma cell line; assay: Cell growth inhibition, SRB assay, HT-1080; format: cell-based, human; settings: 72-96 h, read-out: IC50 nM (±S.E.) HT-1080
Description: as §1, §2
(§3) Assessment of cell growth inhibition was determined in 96 well microtiter plates according to the method of Skehan et al., “New Colorimetric Cytotoxicity Assay for Anticancer-Drug Screening, Articles 82(13):1107-1112 (1990). Briefly, cells were plated with 400-1800 cells/well in 96 well plates and incubated at 37° C. 15-18 hr prior to drug addition to allow for cell attachment. Each cell line was exposed to 12 concentrations of compound (a 6 log range), 5 replicate data points per compound concentration. […] Assays were terminated with 100 μl of ice-cold 50% TCA. […] Optical density was measured at 570 nm. […]

[4] = tested on: A121 ovarian carcinoma cell line; assay: Cell growth inhibition, sulforhodamine B (SRB) assay, A121; format: cell-based, human; settings: 72-96 h, read-out: IC50 nM (±S.E.) A121
Description: as §1, §2, §3

[5] = Stability of trifluoroacetate product fraction solutions on storage; format: physicochemical; settings: preparative HPLC fraction solutions, initially 98.8% average purity; 8° C. for 16 days; analytical HPLC
[6] = tested on: LCC6-MDR1 Pgp transfected breast carcinoma cell line; assay: Cell growth inhibition, SRB assay, LCC6-MDR; settings: LCC6-MDR1 variant line overexpressing Pgp vs LCC6-WT
Description: as §1, §2, §3

[7] = tested on: paclitaxel-resistant cells; settings: cited from earlier work
tubulin = settings: cited from earlier work
[8] = Experiment 1, TX-001/TX-002 from 4.0 mM stocks
[9] = Experiment 2, TX-001/TX-002 from 0.4 mM stocks

With “2′-Succinamidyl-PEG2-amine-paclitaxel Acetate [Compound 4]” the IC50 [1, 8] was 8.9 ± 0.4 nM, the IC50 [1, 9] was 36 ± 1.5 nM and the IC50 ([2]; 4.0 mM stock solutions stored at 4° C. for 7 days) was 2.7 ± 0.4 nM. It also gave an IC50 ([2]; Experiment 1, TX-001/TX-002 from 4.0 mM stocks, 72-96 h) of 4.9 ± 0.5 nM, an IC50 ([2]; Experiment 2, TX-001/TX-002 from 0.4 mM stocks, 72-96 h) of 13 ± 0.5 nM and an IC50 [3, 8] of 4.5 ± 0.4 nM. The IC50 [3, 9] was 19 ± 0.7 nM, the IC50 [4, 8] was 13 ± 0.5 nM and the IC50 [4, 9] was 37 ± 1.2 nM.
With “2′-Succinamidyl-PEG2-amine-paclitaxel Trifluoroacetate [Compound 3]” the “average purity after storage” value [5] was 97.4%.
With `CC(=O)O.CC(=O)OC1C(=O)C2(C)C(O)CC3OCC3(OC(C)=O)C2C(OC(=O)c2ccccc2)C2(O)CC(OC(=O)C(OC(=O)CCCC(=O)NCCOCCOCCN)C(NC(=O)c3ccccc3)c3ccccc3)C(C)=C1C2(C)C` (stereo not shown) [Compound 5, 2′-Glutaramidyl-PEG2-amine-paclitaxel acetate] the “Resistance ratio (IC50 resistant cell line/IC50 parental line)” value (“Resistance ratio” below) [1] was 1.1-1.5 fold and the “Resistance ratio” value [6] was 47-60 fold.
For `CC(=O)O[C@@]12CO[C@@H]1C[C@H](O)[C@@]1(C)C(=O)[C@H](O)C3=C(C)[C@@H](OC(=O)[C@H](O)[C@@H](NC(=O)OC(C)(C)C)c4ccccc4)C[C@@](O)([C@@H](OC(=O)c4ccccc4)[C@H]21)C3(C)C` [Docetaxel, docetaxel], the “activity relative to paclitaxel” value [7] is listed as “about five times as active as paclitaxel”.
In the case of `CC(=O)O[C@H]1C(=O)[C@@]2(C)[C@H]([C@H](OC(=O)c3ccccc3)[C@]3(O)C[C@H](OC(=O)[C@H](O)[C@@H](NC(=O)c4ccccc4)c4ccccc4)C(C)=C1C3(C)C)[C@]1(OC(C)=O)CO[C@@H]1C[C@@H]2O` [Paclitaxel, reference compound], the “Resistance ratio” value [1] is reported as 1.1-1.4 fold and the “Resistance ratio” value [6] is reported as 65-92 fold.
For A-nor-paclitaxel, the “tubulin-assembly activity relative to paclitaxel” value (tubulin) is listed as “only three times less than that of paclitaxel”.

From patent US6541508B2, “Taxane prodrugs” (Nobex Corporation, priority 1999, dated 2003)
